Measured values published in patent EP3603649A1 (priority 2018, dated 2020).

Target: PrP^res (Homo sapiens, UniProt P04156)
Assay type: cell-based

SMILES: COC[C@H]1O[C@@H]2O[C@H]3[C@H](O)[C@@H](OC)[C@@H](O[C@H]4[C@H](O)[C@@H](OC)[C@@H](O[C@H]5[C@H](O)[C@@H](OC)[C@@H](O[C@H]6[C@H](O)[C@@H](OC)[C@@H](O[C@H]7[C@H](O)[C@@H](OC)[C@@H](O[C@H]8[C@H](O)[C@@H](OC)[C@@H](O[C@H]1[C@H](O)[C@H]2OC)O[C@@H]8COC)O[C@@H]7COC)O[C@@H]6COC)O[C@@H]5COC)O[C@@H]4COC)O[C@@H]3COC [DIMEB, heptakis(2,6-O-dimethyl)beta-cyclodextrin]
- PrP^Sc accumulation: significantly decreased
